Results taken from the supplement of paper PMC10307832.

Legend:
Assay in all cases: relative viability (nuclei count vs DMSO), 5 days (fraction); higher = more cells survive
[1] = compound: CC1=C(C(=O)N2C=CSC2=N1)CCN3CCC(=C(C4=CC=CC=C4)C5=CC=C(C=C5)F)CC3 + CC(=O)c1c(C)c2cnc(Nc3ccc(N4CCNCC4)cn3)nc2n(C2CCCC2)c1=O [Palbociclib] (partner 0.5 µM)
How it was run: (§1)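 Each reported value is a median over duplicate plates. It expresses relative viability: treated-well nuclei count divided by vehicle-well nuclei count. Lung cancer cell lines in 1536-well plates were dosed by pin tool a day after seeding, alone with one drug or with a fixed anchor-drug dose plus five library-drug doses (not always all listed) in √10 steps, and nuclei were counted after 5 days.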

[2] = compound: CC1=C(C(=O)N2C=CSC2=N1)CCN3CCC(=C(C4=CC=CC=C4)C5=CC=C(C=C5)F)CC3 + CCNC(=O)c1noc(-c2cc(C(C)C)c(O)cc2O)c1-c1ccc(CN2CCOCC2)cc1 [Luminespib] (partner 0.01 µM)
How it was run: as §1

[3] = compound: CC1=C(C(=O)N2C=CSC2=N1)CCN3CCC(=C(C4=CC=CC=C4)C5=CC=C(C=C5)F)CC3 + COc1cccc2cc(-c3nc([C@H]4CC[C@H](C(=O)O)CC4)n4ncnc(N)c34)[nH]c12 [OSI-027] (partner 0.5 µM)
How it was run: as §1

[4] = compound: CC1=C(C(=O)N2C=CSC2=N1)CCN3CCC(=C(C4=CC=CC=C4)C5=CC=C(C=C5)F)CC3 + CS(=O)(=O)N1CCN(Cc2cc3nc(-c4cccc5[nH]ncc45)nc(N4CCOCC4)c3s2)CC1 [Pictilisib] (partner 1 µM)
How it was run: as §1

Row | Cell Line | relative viability ([1]; first compound 0.08 µM) | relative viability ([1]; first compound 0.253 µM) | relative viability ([1]; first compound 0.8 µM) | relative viability ([1]; first compound 2.53 µM) | relative viability ([1]; first compound 8 µM) | relative viability ([2]; first compound 0.08 µM) | relative viability ([2]; first compound 0.253 µM) | relative viability ([2]; first compound 0.8 µM) | relative viability ([2]; first compound 2.53 µM) | relative viability ([2]; first compound 8 µM) | relative viability ([3]; first compound 0.08 µM) | relative viability ([3]; first compound 0.253 µM) | relative viability ([3]; first compound 0.8 µM) | relative viability ([3]; first compound 2.53 µM) | relative viability ([3]; first compound 8 µM) | relative viability ([4]; first compound 0.08 µM) | relative viability ([4]; first compound 0.253 µM) | relative viability ([4]; first compound 0.8 µM) | relative viability ([4]; first compound 2.53 µM) | relative viability ([4]; first compound 8 µM)
1 | BEN | 0.455 | 0.498 | 0.479 | 0.558 | 0.498 | 0.439 | 0.33 | 0.308 | 0.308 | 0.35 | 0.294 | 0.311 | 0.283 | 0.318 | 0.278 | 0.521 | 0.602 | 0.562 | 0.516 | 0.505
2 | HCC-366 | 0.392 | 0.394 | 0.458 | 0.337 | 0.277 |  |  |  |  |  | 1.17 | 1.2 | 1.04 | 1.12 | 0.252 | 0.128 | 0.152 | 0.194 | 0.129 | 0.121
3 | SK-MES-1 | 0.299 | 0.288 | 0.294 | 0.336 | 0.305 | 0.947 | 0.832 | 0.689 | 0.931 | 0.594 | 0.405 | 0.524 | 0.587 | 0.554 | 0.706 | 0.386 | 0.396 | 0.357 | 0.33 | 0.261
4 | CAL-12T | 0.371 | 0.389 | 0.434 | 0.462 | 0.319 | 0.224 | 0.501 | 0.384 | 0.502 | 0.385 | 0.826 | 0.718 | 0.603 | 0.586 | 0.428 |  | 0.445 | 0.411 | 0.42 | 0.387
5 | NCI-H1666 | 0.663 | 0.616 | 0.627 | 0.739 | 1.01 | 1.07 | 1.06 | 1.01 | 0.984 | 0.848 | 0.872 | 0.913 | 0.731 | 0.8 | 0.606 | 0.393 | 0.434 | 0.381 | 0.461 | 0.431
6 | NCI-H2087 | 0.279 | 0.237 | 0.236 | 0.227 | 0.238 | 0.132 | 0.208 | 0.22 | 0.185 | 0.142 | 0.364 | 0.587 | 0.696 | 0.566 | 0.237 | 0.769 | 0.868 | 0.835 | 0.997 | 0.554
7 | LK-2 | 0.766 | 0.607 | 0.822 | 0.791 | 0.575 | 0.154 | 0.21 | 0.186 | 0.191 | 0.162 | 0.242 | 0.188 | 0.156 | 0.18 | 0.212 | 0.611 | 0.66 | 0.605 | 0.451 | 0.539
8 | UMC-11 | 0.309 | 0.321 | 0.272 | 0.321 | 0.328 | 1.18 | 1.05 | 1.07 | 1.11 | 0.786 | 0.591 | 0.469 | 0.504 | 0.48 | 0.351 | 0.953 | 0.811 | 0.8 | 1.15 | 0.733
